The results in this text go back to PubChem BioAssay (NCI).

SMILES strings stand for the structures.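 Grown in 96-well plates, cells were treated for 48 hours with each compound at five concentrations. Insufficient inhibition: endpoint recorded as highest concentration tested. TGI marks complete inhibition of growth.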

A word on the TGI: it is the concentration giving total growth inhibition. A low value points to greater sensitivity of the cells.

Some test systems named below: SNB-75 CNS; HCC-2998 colon; SK-MEL-2 melanoma; NCI-H226 lung; OVCAR-8 ovarian; MDA-MB-231 breast; MDA-N; UACC-62 melanoma; SN12C renal; EKVX NSCLC; MCF7 breast; CCRF-CEM leukemia; SF-268 CNS; NCI-H23 lung; DU-145 prostate; LOX IMVI melanoma; SF-295 CNS; CAKI-1 renal; TK-10 renal.
Common to all, as to assay: DTP human tumour cell line panel, 48 h

Turning to `CN(C)N=Nc1ccc2[nH]c(=O)[nH]c2c1`, the TGI in the assay with SNB-75 CNS, with HCC-2998 colon, in the assay on SK-MEL-2 melanoma, in the assay on NCI-H226 lung, in the assay on OVCAR-8 ovarian and in the assay on MDA-MB-231 breast was over 100 µM in each case. For the same compound, the TGI in the assay on MDA-N, in the assay with UACC-62 melanoma, with SN12C renal, in the assay with EKVX NSCLC, with MCF7 breast and in the assay with CCRF-CEM leukemia was over 100 µM in each case. Also, the TGI in the assay with SF-268 CNS, in the assay on NCI-H23 lung, with DU-145 prostate, in the assay with LOX IMVI melanoma, with SF-295 CNS and in the assay on CAKI-1 renal was over 100 µM in each case. Moreover, the TGI in the assay on TK-10 renal is over 100 µM.
Regarding `C#C[C@]1(O)CC[C@H]2[C@@H]3CCC4=C/C(=N/OC(=O)c5cccc6c(=O)c7ccccc7[nH]c56)CCC4[C@H]3CC[C@@]21CC` (stereo partly drawn), the TGI in the assay with SNB-75 CNS was over 100 µM; with HCC-2998 colon, over 90.9 µM; with SK-MEL-2 melanoma, over 100 µM; in the assay with NCI-H226 lung, over 100 µM; in the assay with OVCAR-8 ovarian it was over 100 µM; in the assay on MDA-MB-231 breast, over 100 µM. The TGI with MDA-N is over 100 µM; in the assay with UACC-62 melanoma it was over 71.9 µM; in the assay on SN12C renal it was over 100 µM; in the assay on EKVX NSCLC it was over 100 µM; with MCF7 breast, over 93.5 µM; with CCRF-CEM leukemia it was over 54.1 µM. Also, the TGI was over 100 µM in the assay with SF-268 CNS; over 100 µM in the assay with NCI-H23 lung; over 100 µM in the assay on DU-145 prostate; over 56.6 µM in the assay with LOX IMVI melanoma; over 100 µM in the assay on SF-295 CNS; over 85 µM in the assay with CAKI-1 renal. This compound also showed a TGI in the assay on TK-10 renal of over 100 µM.
In the case of `CC1(C)OC2OC(COC(=O)c3ccc(C#N)cc3)C3OC(C)(C)OC3C2O1` (stereo not drawn), the TGI in the assay with SNB-75 CNS, in the assay on HCC-2998 colon, in the assay on SK-MEL-2 melanoma, in the assay with NCI-H226 lung, in the assay on OVCAR-8 ovarian and with MDA-MB-231 breast was over 75 µM throughout. Also, the TGI with MDA-N, in the assay with UACC-62 melanoma, with SN12C renal, in the assay on EKVX NSCLC, in the assay with MCF7 breast and with CCRF-CEM leukemia was over 75 µM each time. The TGI with SF-268 CNS, with NCI-H23 lung, in the assay on DU-145 prostate, in the assay with LOX IMVI melanoma, in the assay on SF-295 CNS and in the assay with CAKI-1 renal was over 75 µM throughout. In the assay with TK-10 renal, this compound registered a TGI of over 75 µM.
Turning to `N#Cc1c(-c2ccc([N+](=O)[O-])cc2)cc(-c2ccc(Nc3ccnc4cc(Cl)ccc34)cc2)nc1N`, the TGI in the assay on SNB-75 CNS was 34.6 µM; in the assay on HCC-2998 colon, 43.2 µM; with SK-MEL-2 melanoma it was 43.5 µM; with NCI-H226 lung, over 95.2 µM; with OVCAR-8 ovarian, over 23.3 µM; in the assay with MDA-MB-231 breast, 33.7 µM. In addition, the concentration for total growth inhibition (TGI) is 17.1 µM in the assay on MDA-N; over 64.1 µM in the assay on UACC-62 melanoma; 17.6 µM in the assay on SN12C renal; 38 µM in the assay on EKVX NSCLC; 4.73 µM with MCF7 breast; 3.8 µM with CCRF-CEM leukemia. Moreover, the TGI in the assay with SF-268 CNS was 42.2 µM; in the assay on NCI-H23 lung, 65.6 µM; with DU-145 prostate, 33.2 µM; in the assay on LOX IMVI melanoma, 2.9 µM; in the assay on SF-295 CNS it was 37.6 µM; in the assay on CAKI-1 renal, 40.4 µM. Moreover, the TGI in the assay on TK-10 renal worked out at 43 µM.
In the case of `CCN(CC)CCN1C(=O)C(=O)N(c2cccc3ccccc23)C1=O`, the TGI in the assay on SNB-75 CNS, in the assay with HCC-2998 colon, in the assay with SK-MEL-2 melanoma, in the assay with NCI-H226 lung, in the assay on OVCAR-8 ovarian and in the assay with MDA-MB-231 breast was over 10 µM throughout. For the same compound, the TGI in the assay on MDA-N, with UACC-62 melanoma, in the assay with SN12C renal, with EKVX NSCLC, in the assay with MCF7 breast and in the assay on CCRF-CEM leukemia was over 10 µM throughout. Moreover, the TGI with SF-268 CNS, in the assay with NCI-H23 lung, in the assay with DU-145 prostate, in the assay on LOX IMVI melanoma, in the assay with SF-295 CNS and in the assay with CAKI-1 renal was over 10 µM in each case. In the assay on TK-10 renal, this compound showed a TGI of over 10 µM.
Regarding `COCOc1cc(OC)ccc1C/C(=N/O)C(=O)OC`, the TGI in the assay with SNB-75 CNS is 74.4 µM; in the assay on HCC-2998 colon it was over 100 µM; in the assay with SK-MEL-2 melanoma, over 100 µM; in the assay on NCI-H226 lung, over 100 µM; with OVCAR-8 ovarian, over 100 µM; in the assay with MDA-MB-231 breast, over 100 µM. Besides, the TGI with MDA-N, in the assay on UACC-62 melanoma, in the assay with SN12C renal, in the assay on EKVX NSCLC, with MCF7 breast and with CCRF-CEM leukemia was over 100 µM in each case. The TGI in the assay with SF-268 CNS, with NCI-H23 lung, in the assay with DU-145 prostate, with LOX IMVI melanoma, with SF-295 CNS and in the assay on CAKI-1 renal was over 100 µM throughout. In the assay with TK-10 renal, this compound had a TGI of over 100 µM.
For `COc1cccc2cc(C(=O)NC34CC5CC(CC(C5)C3)C4)c(=N)oc12`, the TGI in the assay with SNB-75 CNS is over 100 µM; with HCC-2998 colon, over 100 µM; in the assay with SK-MEL-2 melanoma, over 100 µM; in the assay on NCI-H226 lung, over 100 µM; in the assay on OVCAR-8 ovarian, over 50.6 µM; in the assay on MDA-MB-231 breast, over 100 µM. Besides, the TGI with MDA-N is over 100 µM; in the assay with UACC-62 melanoma, over 100 µM; in the assay on SN12C renal, over 100 µM; with EKVX NSCLC it was over 100 µM; in the assay on MCF7 breast, over 100 µM; in the assay on CCRF-CEM leukemia, over 65.2 µM. The TGI in the assay on SF-268 CNS, with NCI-H23 lung, in the assay on DU-145 prostate, in the assay with LOX IMVI melanoma, in the assay with SF-295 CNS and in the assay with CAKI-1 renal was over 100 µM in each case. The compound further registered a TGI with TK-10 renal of over 100 µM.
